Experimental data as given in US8263777B2, “Aminopyrazole triazolothiadiazole inhibitor of c-Met protein kinase” (Vertex Pharmaceuticals Incorporated, priority 2010, dated 2012).
“And” between values parts separate entries of the source, which are not always exact repeats. Equal values may be shown once.

What was measured:
c-Met [1] = biological target: T1, c-Met (Homo sapiens, UniProt P08581); test: c-Met kinase inhibition assay (radiometric, 33P-ATP, polyE4Y); format: biochemical; conditions: 0.5 nM c-Met, 35 μM ATP, competitive tight-binding fit
Description: Compound 1 was screened for its ability to inhibit c-Met kinase using a standard radiometric assay. Briefly, in this kinase assay the transfer of the terminal ^33P-phosphate in ^33P-ATP to substrate polyE4Y is interrogated. The assay was carried out in 96-well plates to a final volume of 100 μL per well containing 0.5 nM c-Met, 100 mM HEPES (pH 7.5), 10 mM MgCl2, 25 mM NaCl, 0.01% BSA, 1 mM DTT, 0.5 mg/mL polyE4Y, and 35 μM ATP. Accordingly, Compound 1 was dissolved in DMSO to make a 10 mM initial stock solution. Serial dilutions in DMSO were then made to obtain the final solutions for the assay. A 1.5 μL aliquot of DMSO or inhibitor in DMSO was added to each well, followed by the addition of ^33P-ATP, and finally the addition of c-Met and polyE4Y (obtained from Sigma). After 20 min, the reaction was quenched with 50 μL of 30% trichloroacetic acid (TCA) containing 4 mM ATP. The reaction mixture was transferred to the 0.66 mm GF filter plates (Corning) and washed three times with 5% TCA. Following the addition of 50 μL of Ultimate Gold™ high efficiency scintillant (Packard Bioscience), the samples were counted in a Packard TopCount NXT Microplate Scintillation and Luminescence Counter (Packard BioScience). The Ki values were calculated using Microsoft Excel Solver macros to fit the data to the kinetic model for competitive tight-binding inhibition.

[2] = test system: A549 cells (A549HGF-lm1115); test: Inhibition of tumor metastasis to the lungs, subcutaneous A549HGF tumors in SCID mice; format: in vivo; conditions: for Luminescence of homogenized lung tissue, Mean / Luminescence of homogenized lung tissue, individual animal: study termination; for Luminescence of homogenized lung tissue, Mean: group mean; for Luminescence of homogenized lung tissue, individual animal: one value per animal ID
Description: Compound 1 was investigated for its ability to inhibit the metastasis of subcutaneously implanted tumors to the lungs of severe combined immunodeficient (SCID) mice. Accordingly, A549 cells (A549HGF-lm1115, transfected with hepatocyte growth factor, luciferase, and green fluorescent protein) were cultured in RPMI1640 medium (Invitrogen, Carlsbad, Calif.) supplemented with 10% fetal bovine serum (FBS) (Hyclone, Logan, Utah), 100 units/mL of penicillin, […] of streptomycin (Invitrogen, Carlsbad, Calif.), and 2 mM L-glutamine for fewer than 4 passages prior to implantation. 3-(Difluoro(quinolin-6-yl)methyl)-N-(1-methyl-1H-pyrazol-4-yl)-[1,2,4]triazolo[3,4-b][1,3,4]thiadiazol-6-amine (Compound 1) was formulated in a vehicle containing 0.5% (w/v) methylcellulose (Sigma-Aldrich, St Louis, Mo.) and 0.1% (v/v) Tween 80™ as a dissolved homogenous form, which was prepared fresh each day and administered to mice via oral gavage at a dosing volume of 10 mL/kg.
Female SCID mice were injected subcutaneously (s.c.) with 5×10^6 A549HGF cells into the right dorsal axillary region on Day 0. Treatments were initiated on the same day by oral administration (p.o.) of Compound 1 once daily (QD) at total daily doses of 30 and 60 mg/kg/day for 22 days. Ectopic tumor measurements were recorded twice a week for 3 weeks after the initiation of treatment.
In order to evaluate the anti-metastatic potential of Compound 1, at the termination of the study all animal lung tissues were harvested and lysed by homogenization for ex vivo quantification via luciferase luminescence.

c-Met [3] = biological target: T1, c-Met; test: Inhibition of c-Met activity in Snu5 gastric carcinoma cells (Snu5-AP1-Luc-Pest luciferase); format: cell-based; parameters: is a human gastric carcinoma known to overexpress c-Met, which is constitutively active; host or cells: Snu5 human gastric carcinoma cells transduced with a 6xAP1-luciferase-PEST reporter (Snu5-AP1-Luc-Pest); conditions: 6 hours, luciferase luminescence
Text: Compound 1 was also screened for its ability to inhibit the Luciferase-induced signal in an engineered Snu5 cell line. Snu5 [obtained from American Type Culture Collection (Catalog number CRL-5973)] is a human gastric carcinoma known to overexpress c-Met, which is constitutively active. The cell line was transduced with the retrovirus, pCLPCX, which contains a genetic construct consisting of 6×AP1 promoter response elements and a luciferase gene having a C-terminal PEST sequence (proteolytic signal from mouse ornithine decarboxylase, which reduces the half-life of the luciferase). The constitutively active c-Met activates cellular pathways (principally MAP kinase), resulting in AP-1-induced transcription of luciferase-PEST and translation into the final product, the activity of which is quantifiable as a chemiluminescent readout upon the addition of luciferin (Steady-Glo from Promega.). Residual luminescence is strongly correlated to the inhibition of c-Met. A stable cell line was obtained by selecting the new cell line (Snu5-AP1-Luc-Pest) with puromycin. […] The Snu5-AP1-Luc-Pest cells were counted and diluted to 200,000-cells/mL solution. […] The plate was read on a 1450 Microbeta Liquid Scintillation and Luminescence Counter (Perkin-Elmer).

[4] = test system: SNU-5 gastric cancer cells; test: Inhibition of tumor growth of subcutaneously implanted SNU-5 cells in SCID mice; format: in vivo; conditions: for SNU-5 tumor weight at study termination, Mean: Day 38, group mean; for SNU-5 tumor weight at study termination, Mean / SNU-5 tumor weight at study termination, individual animal: in mg (unit assumed); for SNU-5 tumor weight at study termination, individual animal: Day 38, one value per animal ID, listed as Compound 3; for percent tumor weight reduction vs vehicle control: P<0.002
Description: SNU-5 cells (CRL-5973, American Type Culture Collection, Manassas, Va.) were cultured in ISCOVE's Modified Dulbecco's Medium (IMDM) (Invitrogen, Carlsbad, Calif.) supplemented with 10% fetal bovine serum (FBS) (Hyclone, Logan, Utah), 100 units/mL of penicillin, […] of streptomycin (Invitrogen, Carlsbad, Calif.), and 2 mM L-glutamine. Cells were cultured for fewer than 4 passages prior to implantation. Female SCID mice (Fox Chase SCID, CB-17, mice weighing 17 to 19 g obtained from Charles River Laboratories, Wilmington, Mass.) were injected subcutaneously (s.c.) with 5×10^6 SNU-5 cells into the right dorsal axillary region on Day 0. Treatments were initiated on Day 25 when the average tumor volume reached approximately 358 mm^3.
Compound 1, formulated in a vehicle containing 30% (w/v) Propylene Glycol and 10% Solutol (Sigma-Aldrich, St Louis, Mo.) as a suspended homogenous form, was administered orally (p.o.) once daily (QD) at total daily doses of 3, 10, and 30 mg/kg/day for 14 days. Tumor volumes (calculated using the ellipsoid formula, (length×width^2)/2, where length and width represented the largest and smallest dimensions of the tumor, respectively) were recorded for two weeks after the initiation of treatment. The study was terminated 38 days after tumor implantation.

T1 sequence (P08581 25-1390): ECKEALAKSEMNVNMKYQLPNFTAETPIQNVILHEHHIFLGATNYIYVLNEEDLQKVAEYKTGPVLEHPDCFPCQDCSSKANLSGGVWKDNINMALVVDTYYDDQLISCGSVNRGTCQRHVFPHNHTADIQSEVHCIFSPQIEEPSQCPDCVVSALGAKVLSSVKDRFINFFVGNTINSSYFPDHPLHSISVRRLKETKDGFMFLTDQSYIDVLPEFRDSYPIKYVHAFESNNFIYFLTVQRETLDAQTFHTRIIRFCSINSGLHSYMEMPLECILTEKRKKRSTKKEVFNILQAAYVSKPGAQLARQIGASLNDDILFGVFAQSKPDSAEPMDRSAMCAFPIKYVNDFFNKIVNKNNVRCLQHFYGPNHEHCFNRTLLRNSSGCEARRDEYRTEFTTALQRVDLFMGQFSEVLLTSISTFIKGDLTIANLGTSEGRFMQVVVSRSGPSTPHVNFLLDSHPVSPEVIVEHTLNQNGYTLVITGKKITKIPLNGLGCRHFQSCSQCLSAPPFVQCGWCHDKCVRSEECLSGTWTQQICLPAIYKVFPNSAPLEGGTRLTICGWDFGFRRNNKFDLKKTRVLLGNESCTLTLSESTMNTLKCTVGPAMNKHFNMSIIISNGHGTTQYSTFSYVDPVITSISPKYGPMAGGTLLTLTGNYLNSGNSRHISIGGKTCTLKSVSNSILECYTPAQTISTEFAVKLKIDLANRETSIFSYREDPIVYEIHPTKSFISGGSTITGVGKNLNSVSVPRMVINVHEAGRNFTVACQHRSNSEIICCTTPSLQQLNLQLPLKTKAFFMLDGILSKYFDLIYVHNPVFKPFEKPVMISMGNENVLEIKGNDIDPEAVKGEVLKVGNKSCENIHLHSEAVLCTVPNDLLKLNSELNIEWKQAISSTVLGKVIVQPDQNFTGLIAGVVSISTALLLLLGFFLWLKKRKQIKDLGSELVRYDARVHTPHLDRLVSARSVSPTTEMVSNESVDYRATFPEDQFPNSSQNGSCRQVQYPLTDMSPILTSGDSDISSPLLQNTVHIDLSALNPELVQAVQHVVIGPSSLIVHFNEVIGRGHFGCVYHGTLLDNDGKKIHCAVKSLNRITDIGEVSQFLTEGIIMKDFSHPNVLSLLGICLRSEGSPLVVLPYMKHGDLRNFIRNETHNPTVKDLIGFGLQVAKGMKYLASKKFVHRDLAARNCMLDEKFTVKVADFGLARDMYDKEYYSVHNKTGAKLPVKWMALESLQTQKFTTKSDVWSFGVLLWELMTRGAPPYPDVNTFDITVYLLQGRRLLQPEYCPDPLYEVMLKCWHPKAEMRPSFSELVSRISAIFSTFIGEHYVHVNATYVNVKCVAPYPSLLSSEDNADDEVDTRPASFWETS

With `Cn1cc(Nc2nn3c(C(F)(F)c4ccc5ncccc5c4)nnc3s2)cn1` [Compound 1, 3-(difluoro(quinolin-6-yl)methyl)-N-(1-methyl-1H-pyrazol-4-yl)-[1,2,4]triazolo[3,4-b][1,3,4]thiadiazol-6-amine] the Ki (c-Met [1]) was less than 20 nM, the “Luminescence of homogenized lung tissue, Mean” value ([2]; 30 mg/kg/day) was 12740.8 counts and the “Luminescence of homogenized lung tissue, individual animal” value ([2]; 30 mg/kg/day) was 3890 counts and 5270 counts and 2270 counts and 2620 counts and 17200 counts and 21300 counts and 6430 counts and 4340 counts and 65400 counts and 2230 counts and 16300 counts and 5640 counts. For the same compound, the “formation of lung metastases” value ([2]; 60 mg/kg/day compared to vehicle controls, p<0.02) was “significantly inhibits”, the “Luminescence of homogenized lung tissue, Mean” value ([2]; 60 mg/kg/day, p<0.02 vs vehicle) was 6672.3±1986.1 counts and 6672.3 counts and the “Luminescence of homogenized lung tissue, individual animal” value ([2]; 60 mg/kg/day) was 2170 counts and 1480 counts and 2540 counts and 19300 counts and 21100 counts and 3800 counts and 16500 counts and 1440 counts and 2620 counts and 2920 counts and 5540 counts and 4860 counts and 2470 counts. The “change in primary A549 tumor cell growth at the site of implantation vs vehicle” value ([2]; 30 or 60 mg/kg/day p.o. QD, 22 days) was “no significant change”, the IC50 (c-Met [3]) was less than 20 nM and the SNU-5 tumor volume ([4]; 3 mg/kg/day p.o. QD, Day 25 (treatment start), mean ± standard error) was 356.1 ± 24.5 mm^3. For the same compound, the SNU-5 tumor volume ([4]; 3 mg/kg/day p.o. QD, Day 28, mean ± standard error) was 432.6 ± 31.2 mm^3, the SNU-5 tumor volume ([4]; 3 mg/kg/day p.o. QD, Day 31, mean ± standard error) was 511.9 ± 36.3 mm^3 and the SNU-5 tumor volume ([4]; 3 mg/kg/day p.o. QD, Day 35, mean ± standard error) was 587.8 ± 39.5 mm^3. The SNU-5 tumor volume ([4]; 3 mg/kg/day p.o. QD, Day 38, mean ± standard error) was 670.4 ± 46.2 mm^3, the “SNU-5 tumor weight at study termination, Mean” value (“SNU-5 tumor weight … Mean” for short) ([4]; 3 mg/kg/day) was 619.9 and the “SNU-5 tumor weight at study termination, individual animal” value (from here on “SNU-5 tumor weight … individual animal”) ([4]; 3 mg/kg/day) was 619 and 505 and 525 and 485 and 605 and 655 and 851 and 770 and 405 and 790 and 938 and 508 and 368 and 679 and 596. For the same compound, the “percent tumor weight reduction vs vehicle control” value (shortened to “percent tumor weight reduction”) ([4]; 3 mg/kg/day) was 34.5%, the SNU-5 tumor volume ([4]; 10 mg/kg/day p.o. QD, Day 25 (treatment start), mean ± standard error) was 358.0 ± 17.1 mm^3 and the SNU-5 tumor volume ([4]; 10 mg/kg/day p.o. QD, Day 28, mean ± standard error) was 354.2 ± 21.7 mm^3. The SNU-5 tumor volume ([4]; 10 mg/kg/day p.o. QD, Day 31, mean ± standard error) was 381.8 ± 25.6 mm^3, the SNU-5 tumor volume ([4]; 10 mg/kg/day p.o. QD, Day 35, mean ± standard error) was 406.6 ± 23.4 mm^3 and the SNU-5 tumor volume ([4]; 10 mg/kg/day p.o. QD, Day 38, mean ± standard error) was 453.9 ± 27.3 mm^3. The “SNU-5 tumor weight … Mean” value ([4]; 10 mg/kg/day) was 385.7, the “SNU-5 tumor weight … individual animal” value ([4]; 10 mg/kg/day) was 319 and 476 and 358 and 469 and 279 and 660 and 418 and 400 and 387 and 410 and 349 and 275 and 305 and 371 and 309 and the “percent tumor weight reduction” value ([4]; 10 mg/kg/day) was 59.3%. The SNU-5 tumor volume ([4]; 30 mg/kg/day p.o. QD, Day 25 (treatment start), mean ± standard error) was 359.5 ± 35.1 mm^3, the SNU-5 tumor volume ([4]; 30 mg/kg/day p.o. QD, Day 28, mean ± standard error) was 281.3 ± 28.7 mm^3 and the SNU-5 tumor volume ([4]; 30 mg/kg/day p.o. QD, Day 31, mean ± standard error) was 256.5 ± 23.6 mm^3. For the same compound, the SNU-5 tumor volume ([4]; 30 mg/kg/day p.o. QD, Day 35, mean ± standard error) was 255.7 ± 21.1 mm^3, the SNU-5 tumor volume ([4]; 30 mg/kg/day p.o. QD, Day 38, mean ± standard error) was 273.4 ± 24.2 mm^3 and the “SNU-5 tumor weight … Mean” value ([4]; 30 mg/kg/day) was 251.2. For the same compound, the “SNU-5 tumor weight … individual animal” value ([4]; 30 mg/kg/day) was 180 and 173 and 260 and 420 and 250 and 156 and 350 and 327 and 150 and 246, the “tumor regression by tumor volume analysis” value ([4]; 30 mg/kg/day, P<0.001) was −23.9% and the “percent tumor weight reduction” value ([4]; 30 mg/kg/day) was 73.5%. The anti-tumor activity ([4]; all three dose levels tested (3, 10, 30 mg/kg/day)) was “significant and dose-dependent anti-tumor activity”.
